Where two headings read alike, the source gives them in different places.
Molecular target: T1, human mAChR M1 (Homo sapiens, UniProt P11229)
T1 sequence (P11229 1-460): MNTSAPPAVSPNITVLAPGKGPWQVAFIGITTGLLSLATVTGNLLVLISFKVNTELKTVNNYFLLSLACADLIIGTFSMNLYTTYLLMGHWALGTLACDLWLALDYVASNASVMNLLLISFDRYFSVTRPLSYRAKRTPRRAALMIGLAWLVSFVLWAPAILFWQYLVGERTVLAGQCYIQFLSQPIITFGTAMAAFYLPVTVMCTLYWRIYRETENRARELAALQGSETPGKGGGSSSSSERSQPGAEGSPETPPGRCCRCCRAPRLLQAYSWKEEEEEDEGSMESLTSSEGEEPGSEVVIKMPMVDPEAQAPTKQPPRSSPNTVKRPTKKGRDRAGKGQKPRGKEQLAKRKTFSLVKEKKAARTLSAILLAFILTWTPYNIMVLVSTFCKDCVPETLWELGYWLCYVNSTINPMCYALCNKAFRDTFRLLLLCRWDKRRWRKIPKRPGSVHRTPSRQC
Experiment: mAChR M1 cell-based functional assay: calcium mobilization, positive allosteric modulator mode (increase in EC20 acetylcholine response)
Conditions: for Emax: read-out: Human M1 Emax (%)
Description: a. Cell Lines Expressing Muscarinic Acetylcholine Receptors
Chinese hamster ovary (CHO-K1) cells stably expressing rat (r)M1 were purchased from the American Type Culture Collection and cultured according to their indicated protocol. CHO cells stably expressing human (h)M2, hM3, and hM5 were described previously (Levey, et al., 1991); hMi and hM4 cDNAs were purchased from Missouri S&T cDNA Resource; rM4 cDNA was provided by T. I. Bonner (National Institutes of Health, Bethesda, Md.). rM2 and rM3 were cloned from a rat brain cDNA library and sequence verified. hMi, rM2, rM3, hM4, and rM4 cDNAs were used to stably transfect CHO-K1 cells purchased from the American Type Culture Collection using Lipofectamine2000. To make stable rM2, hM2, rM3, hM4, and rM4 cell lines for use in calcium mobilization assays, these cells also were stably transfected with a chimeric G-protein (Gqi5) (provided by B. R. Conklin, University of California, San Francisco) using Lipofectamine 2000. rMi, hMi, rM3, hM3, rM5, and hM5 cells were grown in Ham's F-12 medium containing 10% heat-inactivated fetal bovine serum (FBS), 20 mM HEPES, and 50 μg/mL G418 sulfate. rM2-Gqi5, hM2-Gqi5, and hM4-Gqi5 cells were grown in the same medium also containing 500 μg/mL Hygromycin B. Stable rM4-Gqi5 cells were grown in DMEM containing 10% heat-inactivated FBS, 20 mM HEPES, 400 μg/mL G418 sulfate, and 500 μg/mL Hygromycin B.
b. Cell-Based Functional Assay of Muscarinic Acetylcholine Receptor Activity
For high throughput measurement of agonist-evoked increases in intracellular calcium, CHO-K1 cells stably expressing muscarinic receptors were plated in growth medium lacking G418 and hygromycin at 15,000 cells/20 μL/well in Greiner 384-well black-walled, tissue culture (TC)-treated, clear-bottom plates (VWR). Cells were incubated overnight at 37° C. and 5% CO2. The next day, cells were washed using an ELX 405 (BioTek) with four washes (80 μL) of assay buffer then aspirated to 20 μL. Next, 20 μL of 16 μM Fluo-4/acetoxymethyl ester (Invitrogen, Carlsbad, Calif.) prepared as a 2.3 mM stock in DMSO and mixed in a 1:1 ratio with 10% (w/v) Pluronic F-127 and diluted in assay buffer was added to the wells and the cell plates were incubated for 50 min at 37° C. and 5% CO2. Dye was removed by washing with the ELX 405 (four […], washes of assay buffer) then aspirated to 20 μL. Compound master plates were formatted in an 11 point CRC format (1:3 dilutions) in 100% DMSO with a starting concentration of 10 mM using the BRAVO liquid handler (Agilent). Test compound CRCs were then transferred to daughter plates (240 nL) using the Echo acoustic plate reformatter (Labcyte, Sunnyvale, Calif.) and then diluted into assay buffer (40 μL) to a 2× stock using a Thermo Fisher Combi (Thermo Fisher Scientific, Waltham, Mass.).
Calcium flux was measured using the Functional Drug Screening System (FDSS) 6000 (Hamamatsu Corporation, Tokyo, Japan) as an increase in the fluorescent static ratio. Compounds were applied to cells (20 μL, 2×) using the automated system of the FDSS 6000 at 4 s into the 300 s protocol and the data were collected at 1 Hz. At 144 s into the 300s protocol, 10 μL of an EC20 concentration of the muscarinic receptor agonist acetylcholine was added (5×), followed by the addition of 12 μL an EC80 concentration of acetylcholine at the 230 s time point (5×). Agonist activity was analyzed as a concentration-dependent increase in calcium mobilization upon compound addition. Positive allosteric modulator activity was analyzed as a concentration-dependent increase in the EC20 acetylcholine response. Antagonist activity was analyzed as a concentration-dependent decrease in the EC80 acetylcholine response. Concentration-response curves were generated using a four-parameter logistical equation in XLfit curve fitting software (IDBS, Bridgewater, N.J.) for Excel (Microsoft, Redmond, Wash.) or Prism (GraphPad Software, Inc., San Diego, Calif.).

[1] = Table 1, mAChR M1 cell-based functional assay, PAM mode, species not given, read-out: EC50
[2] = Table 2, human M1, read-out: Human M1 EC50

| SMILES | EC50 [1] [nM] | EC50 [2] [nM] | Emax (Table 2, human M1) [%] | EC50 [nM] |
| --- | --- | --- | --- | --- |
| Cc1ccc(Oc2cc(C(=O)NC(C)C(C)(C)CO)nc3ccsc23)cn1 (stereo not drawn) [Compound 34, N-(3-hydroxy-1,2,2-trimethyl-propyl)-7-[(6-methyl-3-pyridyl)oxy]thieno[3,2-b]pyridine-5-carboxamide] | > 10000 |  |  |  |
| CN1CCCC(NC(=O)c2cc(Cc3ccc(-n4cccn4)cc3)c3sccc3n2)C1 (stereo not drawn) [Compound 442, N-(1-methyl-3-piperidyl)-7-[(4-pyrazol-1-ylphenyl)methyl]thieno[3,2-b]pyridine-5-carboxamide] |  | 1490 | 71.8 |  |
| CC1CC(NC(=O)c2cc(Cc3ccc(-c4cncs4)cc3)c3sccc3n2)CC(C)O1 (stereo not drawn) [Compound 391, N-(2,6-dimethyltetrahydropyran-4-yl)-7-[(4-thiazol-5-ylphenyl)methyl]thieno[3,2-b]pyridine-5-carboxamide] |  | 1800 | 73.4 |  |
| CO[C@H]1CCCC[C@@H]1NC(=O)c1cc(Cc2ccc(-c3csc(C)n3)cc2)c2sccc2n1 [Compound 195, N-[(1S,2S)-2-methoxycyclohexyl]-7-[[4-(2-methylthiazol-4-yl)phenyl]methyl]thieno[3,2-b]pyridine-5-carboxamide] |  | 2390 | 81.8 |  |
| Cc1csc2c(Cc3ccc(-n4cccn4)cc3)cc(C(=O)NC3COC3)nc12 [Compound 319, 3-methyl-N-(oxetan-3-yl)-7-[(4-pyrazol-1-ylphenyl)methyl]thieno[3,2-b]pyridine-5-carboxamide] |  | 1810 | 56.1 |  |
| Cn1ccc(-c2ccc(Cc3cc(C(=O)NC4CCOC(C)(C)C4)nc4ccsc34)cc2)n1 (stereo not drawn) [Compound 325, N-(2,2-dimethyltetrahydropyran-4-yl)-7-[[4-(1-methylpyrazol-3-yl)phenyl]methyl]thieno[3,2-b]pyridine-5-carboxamide] |  | 907 | 83.3 |  |
| Cc1ccc(Oc2cc(C(=O)NCC(O)C(F)(F)F)nc3ccsc23)cn1 (stereo not drawn) [Compound 31, 7-[(6-methyl-3-pyridyl)oxy]-N-(3,3,3-trifluoro-2-hydroxy-propyl)thieno[3,2-b]pyridine-5-carboxamide] | > 10000 |  |  |  |
| O=C(NCC1CCOC1)c1cc(Cc2ccc(-c3nccs3)cc2)c2sccc2n1 (stereo not drawn) [Compound 374, N-(tetrahydrofuran-3-ylmethyl)-7-[(4-thiazol-2-ylphenyl)methyl]thieno[3,2-b]pyridine-5-carboxamide] |  | 556 | 73.1 |  |
| Cc1ccc(Cc2cc(C(=O)N[C@@H]3CCOC3)nc3ccsc23)cn1 [Compound 262] |  | > 10000 | 24.4 |  |
| Cn1cc(-c2ccc(Cc3cc(C(=O)N[C@H]4CCOC4)nc4ccsc34)cc2)nn1 [Compound 151, 7-[[4-(1-methyltriazol-4-yl)phenyl]methyl]-N-[(3S)-tetrahydrofuran-3-yl]thieno[3,2-b]pyridine-5-carboxamide] |  | 595 | 88.4 |  |
| Cc1ccc(Oc2cc(C(=O)NC3CC(F)C3)nc3ccsc23)cn1 (stereo not drawn) [Compound 17, N-(3-fluorocyclobutyl)-7-[(6-methyl-3-pyridyl)oxy]thieno[3,2-b]pyridine-5-carboxamide] |  |  |  | > 10000 |
| Cc1ccc(Cc2cc(C(=O)NC3CCCC(O)C3)nc3ccsc23)cn1 (stereo not drawn) [Compound 49, N-(3-hydroxycyclohexyl)-7-[(6-methyl-3-pyridyl)methyl]thieno[3,2-b]pyridine-5-carboxamide] | > 10000 |  |  |  |

Second part, the compound after the results:

| EC50 [1] [nM] | EC50 [2] [nM] | Emax (Table 2, human M1) [%] | EC50 [nM] | SMILES |
| --- | --- | --- | --- | --- |
|  | 272 | 92.3 |  | Cn1cc(-c2ccc(Cc3cc(C(=O)NC4CCCOC4)nc4ccsc34)cc2)nn1 (stereo not drawn) [Compound 152, 7-[[4-(1-methyltriazol-4-yl)phenyl]methyl]-N-tetrahydropyran-3-yl-thieno[3,2-b]pyridine-5-carboxamide] |
|  | 267 | 65.3 |  | Cn1ncc2nc(C(=O)N[C@H]3CCOC[C@@H]3O)cc(Cc3ccc(-n4cccn4)cc3)c21 [Compound 499, N-[(3R,4S)-3-hydroxytetrahydropyran-4-yl]-1-methyl-7-[(4-pyrazol-1-ylphenyl)methyl]-pyrazolo[4,3-b]pyridine-5-carboxamide] |
|  | 144 | 74.5 |  | Cn1ccc(-c2ccc(Cc3cc(C(=O)N[C@H]4CCC[C@@H]4O)nc4ccsc34)cc2)n1 [Compound 253, N-[(1S,2S)-2-hydroxycyclopentyl]-7-[[4-(1-methylpyrazol-3-yl)phenyl]methyl]thieno[3,2-b]pyridine-5-carboxamide] |
|  | 272 | 73.6 |  | O=C(N[C@H]1CCCC[C@@H]1O)c1cc(Cc2c(F)cc(-c3cscn3)cc2F)c2sccc2n1 [Compound 273, 7-[(2,6-difluoro-4-thiazol-4-yl-phenyl)methyl]-N-[(1S,2S)-2-hydroxycyclohexyl]thieno[3,2-b]pyridine-5-carboxamide] |
|  | 458 | 73.5 |  | Cc1nc(-c2ccc(Cc3cc(C(=O)NC4CCOCC4)nc4c(C)csc34)cc2)co1 [Compound 329, 3-methyl-7-[[4-(2-methyloxazol-4-yl)phenyl]methyl]-N-tetrahydropyran-4-yl-thieno[3,2-b]pyridine-5-carboxamide] |
|  | 203 | 84.1 |  | O=C(N[C@H]1CCC[C@@H]1O)c1cc(Cc2ccc(-c3nccs3)cc2)c2sccc2n1 [Compound 314] |
|  | 5.05 | 62.1 |  | Cn1ccc(-c2ccc(Cc3cc(C(=O)N[C@H]4CCOC[C@@H]4O)nc4ccsc34)cn2)n1 [Compound 353, N-[(3R,4S)-3-hydroxytetrahydropyran-4-yl]-7-[[6-(1-methylpyrazol-3-yl)-3-pyridyl]methyl]thieno[3,2-b]pyridine-5-carboxamide] |
|  | 125 | 79.8 |  | O=C(N[C@@H]1CC[C@H]1O)c1cc(Cc2ccc(-n3cccn3)cc2)c2sccc2n1 [Compound 227, N-[(1R,2R)-2-hydroxycyclobutyl]-7-[(4-pyrazol-1-ylphenyl)methyl]thieno[3,2-b]pyridine-5-carboxamide] |
|  | 49.4 | 64.9 |  | O=C(NC[C@H]1CCCO1)c1cc(Cc2ccc(-n3cccn3)cc2)c2sccc2n1 [Compound 287, 7-[(4-pyrazol-1-ylphenyl)methyl]-N-[[(2R)-tetrahydrofuran-2-yl]methyl]thieno[3,2-b]pyridine-5-carboxamide] |
|  | 446 | 84.7 |  | O=C(NC1CC2(COC2)C1)c1cc(Cc2ccc(-c3nccs3)cc2)c2sccc2n1 [Compound 333] |
|  | 225 | 75.3 |  | Cc1nc(-c2ccc(Cc3cc(C(=O)NC4CCOC(C)(C)C4)nc4ccsc34)cc2)co1 (stereo not drawn) [Compound 300, N-(2,2-dimethyltetrahydropyran-4-yl)-7-[[4-(2-methyloxazol-4-yl)phenyl]methyl]thieno[3,2-b]pyridine-5-carboxamide] |
